Test results from patent US7767804B2, “Compositions and methods for using a solid support to purify RNA” (Qiagen North American Holdings, Inc., priority 2001, dated 2010).
Read-outs that look alike come from different tables or passages of the source.

Experiments:
RNase activity = RNase activity with LiCl Wash I Solution, detected as degraded RNA in the final eluted RNA product; type: biochemical
From the text: For cesium, ammonium, sodium and potassium chloride salts, the maximum solubilities obtained in 55% ethanol were about 2.5 M, 2 M, 1.5 M, and <1 M, respectively. […] It is likely that RNase activity would be detected using the LiCl and LiBr salts as well, at least some proportion of the time, and depending upon the tissue from which the RNA is purified. […] This is probably because solubility definitions are somewhat vague for predicted alcohol solubilities, and the Wash I Solution used in this experiment contained a mixture of water and ethanol, rather than a pure alcohol solution.

[1] = pH 8.8
[2] = cited from earlier work; for Type of Heat: heat of aqueous solution; for Heat of Aqueous Solution: tabulated, Handbook of Chemistry and Physics
[3] = From the text: Much time and effort was spent screening detergents that would adequately lyse cells and also stay soluble in the Lysing/Binding Solution of the present invention. The Tween, Triton, Tergitol, Nonidet and Igepal family of detergents were examined along with a number of non-ionic detergent-like compounds.
[4] = approximate maximum solubility in Wash I Solution containing 55% ethanol
[5] = data extrapolated to 20° C. from tabulated data in Handbook of Chemistry and Physics, cited from earlier work

Compound	Type of Heat [2]	Heat of Aqueous Solution [2]	other results
[Cl-].[Li+] [LiCl, lithium chloride]	exothermic	-8.85 kcal/mol	RNase activity detected as degraded RNA in the final eluted RNA product (RNase activity; 2.5 M LiCl Wash I Solution): RNase activity was detected at least half of the time; LiCl needed in the Wash I Solution in order to eliminate the RNase activity (RNase activity; Wash I Solution): at least 5 M; Measured Solubility in Lysis/Binding [1]: at least 4M
Cl.N [NH4Cl, ammonium chloride]	endothermic	+3.53 kcal/mole	–
[Cl-].[Na+] [NaCl, sodium chloride]	endothermic	+0.93 kcal/mole	–
CCOCCOCCO [DGME, Diethyleneglycolmonoethylether]	–	–	Stability/solubility of detergent in the Lysing/Binding Solution over time [3]: stays in solution
[Cl-].[Cs+] [CsCl, cesium chloride]	endothermic	+4.25 kcal/mole	–
CCCCCCCCCCCC(=O)OCCOCCOCCOCCOCCOCCOCCOCCOCCOCCOCCOCCOCCOCCOCCOCCOCCOCCOCCOCCOCC(OCCOCCOCCOCCOCCOCCOCCOCCOCCOCCOCCOCCOCCOCCOCCOCCOCCOCCOCCOCCO)C1OCC(OCCOCCOCCOCCOCCOCCOCCOCCOCCOCCOCCOCCOCCOCCOCCOCCOCCOCCOCCOCCO)C1OCCOCCOCCOCCOCCOCCOCCOCCOCCOCCOCCOCCOCCOCCOCCOCCOCCOCCOCCOCCO (stereo not drawn) [Tween-20, polyoxylene sorbitan monolaurate]	–	–	Stability/solubility of detergent in the Lysing/Binding Solution over time [3]: saponified or degraded over time and fell out of solution
[Br-].[Li+] [LiBr, lithium bromide]	exothermic	-11.67 kcal/mol	–
[Cl-].[K+] [KCl, potassium chloride]	endothermic	+4.12 kcal/mole	Measured Solubility in Wash I [4]: < 1000 mM; Measured Solubility in Wash I ([4]; listed as potassium chloride): < 1000 mM; Reported Solubility in Water [5]: 3000 mM; Reported Solubility in Water ([5]; listed as potassium chloride): approximately 3 M
